Where “and” joins values, the source holds several entries; their conditions need not be identical. Identical values can stand only once. Like-named read-outs stand apart in the source and are kept apart here.
What was measured:
tubulin [1] = tested on: tubulin; design: method as in El-Abd et al., 2022; conditions: ref El-Abd et al., 2022; read-out: Tubulin polymerization IC50; cited from earlier work
[2] = Cell viability assay (MTT), normal cells; type: cell-based; conditions: human, MCF-10A normal mammary gland epithelial cells, four-day incubation
[3] = tested on: Caspase-3 in MDAMB-231 cancer cell line; assay: Caspase-3 activation assay; type: cell-based, human; conditions: MDAMB-231 cells; for Caspase-3 Fold change: relative to untreated control
From the text: (§1) […]. Supplementary Appendix A provides more information.

[4] = tested on: Caspase-9 in MDAMB-231 cancer cell line; assay: Caspase-9 activation assay; type: cell-based, human; conditions: MDAMB-231 cells
Method: […]. Compound 10o was the least efficient derivative as caspase-9 activators (0.90 ng/mL).
as §1

[5] = tested on: Bax in MDAMB-231 cancer cell line; assay: Bax level assay; type: cell-based, human; conditions: MDAMB-231 cells
From the text: as §1

[6] = tested on: Bcl-2 in MDAMB-231 cancer cell line; assay: Bcl-2 level assay; type: cell-based, human; conditions: MDAMB-231 cells
From the text: as §1

prostatic - PC-3 = assay: Antiproliferative assay (MTT) PC-3
breast - MCF-7 = assay: Antiproliferative assay (MTT) MCF-7
colon - HCT-116 = assay: Antiproliferative assay (MTT) HCT-116
- MDAMB-231 = assay: Antiproliferative assay (MTT) MDAMB-231
pancreatic - MDAMB-231 = assay: Antiproliferative assay (MTT) MDAMB-231; conditions: read-out: Antiproliferative activity IC50 ± SEM (µM) MDAMB-231; MDAMB-231, MTT
[7] = tested on: four human cancer cell lines (HCT-116, PC-3, MCF-7, MDAMB-231); assay: Antiproliferative assay, mean of four cell lines (GI50); conditions: Homo sapiens, read-out: GI50 (average IC50)
tubulin [8] = assay: Tubulin polymerization inhibition assay (Cytoskeleton kit);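 for all read-outs here: Cell-free tubulin polymerization read by fluorescent reporter enhancement over a 30 min reaction, with the compound-free kit control taken as 100% activity and inhibition relative to it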; conditions: for Tub. enzyme inhibition assay %inhibition: 30 min, codes 522-537 run; for Tub. enzyme inhibition assay K. Activity: control = 120, codes 522-537 run

With `Cc1ccc(/C=C/C(=O)c2sc(SCC(=O)Nc3nccs3)nc2C)cc1` [Compound 13d, (E)-2-((4-methyl-5-(3-(p-tolyl)acryloyl)thiazol-2-yl)thio)-N-(thiazol-2-yl)acetamide] the viability at 96 h, 50 µM [2] was 90%, the “Caspase-3 Conc” value [3] was 690 ± 5 pg/mL and the “Caspase-3 Fold change” value [3] was 11 fold. For the same compound, the “Caspase-3 Fold change” value ([3]; listed as 13g) was roughly 10 fold, the “Caspase-9 Conc” value [4] was 1.50 ng/mL and 1.50 ± 0.10 ng/mL and the “Caspase-9 Fold change” value ([4]; relative to untreated control) was 15 fold. The “Bax Conc” value [5] was 320 pg/mL and 320 ± 8 pg/mL, the “Bax Fold change” value ([5]; relative to untreated control) was 40 fold and the “Bcl-2 Conc” value [6] was 0.80 ng/mL. For the same compound, the “Bcl-2 Fold reduction” value ([6]; relative to untreated control) was 6 fold, the “Average of Relative viability of cells (%)” value (prostatic - PC-3; PC-3, 1.56 µM) was 97.1% and the “Average of Relative viability of cells (%)” value (prostatic - PC-3; PC-3, 3.125 µM) was 83.3%. For the same compound, the “Average of Relative viability of cells (%)” value (prostatic - PC-3; PC-3, 6.25 µM) was 57.8%, the “Average of Relative viability of cells (%)” value (prostatic - PC-3; PC-3, 12.5 µM) was 35.6% and the “Average of Relative viability of cells (%)” value (prostatic - PC-3; PC-3, 25 µM) was 20.5%. For the same compound, the “Average of Relative viability of cells (%)” value (prostatic - PC-3; PC-3, 50 µM) was 19.4%, the “Average of Relative viability of cells (%)” value (prostatic - PC-3; PC-3, 100 µM) was 7.6% and the IC50 (prostatic - PC-3; read-out: Antiproliferative activity IC50 ± SEM (µM) PC-3, PC-3, MTT) was 9 ± 0.8 µM. For the same compound, the “Average of Relative viability of cells (%)” value (breast - MCF-7; MCF-7, 1.56 µM) was 88.6%, the “Average of Relative viability of cells (%)” value (breast - MCF-7; MCF-7, 3.125 µM) was 71.2% and the “Average of Relative viability of cells (%)” value (breast - MCF-7; MCF-7, 6.25 µM) was 45.2%. For the same compound, the “Average of Relative viability of cells (%)” value (breast - MCF-7; MCF-7, 12.5 µM) was 32.4%, the “Average of Relative viability of cells (%)” value (breast - MCF-7; MCF-7, 25 µM) was 24.5% and the “Average of Relative viability of cells (%)” value (breast - MCF-7; MCF-7, 50 µM) was 17.1%. The “Average of Relative viability of cells (%)” value (breast - MCF-7; MCF-7, 100 µM) was 8.3%, the IC50 (breast - MCF-7; read-out: Antiproliferative activity IC50 ± SEM (µM) MCF-7, MCF-7, MTT) was 7 ± 0.4 µM and the “Average of Relative viability of cells (%)” value (colon - HCT-116; HCT-116, 1.56 µM) was 90.6%. For the same compound, the “Average of Relative viability of cells (%)” value (colon - HCT-116; HCT-116, 3.125 µM) was 69.8%, the “Average of Relative viability of cells (%)” value (colon - HCT-116; HCT-116, 6.25 µM) was 63.9% and the “Average of Relative viability of cells (%)” value (colon - HCT-116; HCT-116, 12.5 µM) was 32.7%. The “Average of Relative viability of cells (%)” value (colon - HCT-116; HCT-116, 25 µM) was 26.5%, the “Average of Relative viability of cells (%)” value (colon - HCT-116; HCT-116, 50 µM) was 17.4% and the “Average of Relative viability of cells (%)” value (colon - HCT-116; HCT-116, 100 µM) was 9.2%. The IC50 (colon - HCT-116; read-out: Antiproliferative activity IC50 ± SEM (µM) HCT-116, HCT-116, MTT) was 9 ± 0.9 µM, the “Average of Relative viability of cells (%)” value (- MDAMB-231; MDAMB-231, 1.56 µM) was 71.2% and the “Average of Relative viability of cells (%)” value (- MDAMB-231; MDAMB-231, 3.125 µM) was 57.9%. For the same compound, the “Average of Relative viability of cells (%)” value (- MDAMB-231; MDAMB-231, 6.25 µM) was 45.6%, the “Average of Relative viability of cells (%)” value (- MDAMB-231; MDAMB-231, 12.5 µM) was 35.2% and the “Average of Relative viability of cells (%)” value (- MDAMB-231; MDAMB-231, 25 µM) was 15.6%. The “Average of Relative viability of cells (%)” value (- MDAMB-231; MDAMB-231, 50 µM) was 11.3%, the “Average of Relative viability of cells (%)” value (- MDAMB-231; MDAMB-231, 100 µM) was 7.5% and the IC50 (pancreatic - MDAMB-231) was 5 ± 0.3 µM. For the same compound, the IC50 [7] was 8 µM, the “Tub. enzyme inhibition assay %inhibition” value (tubulin [8]; conc 0.01 (unit not given)) was 6.76% and the “Tub. enzyme inhibition assay K. Activity” value (tubulin [8]; conc 0.01 (unit not given)) was 111.89. The “Tub. enzyme inhibition assay %inhibition” value (tubulin [8]; conc 0.1 (unit not given)) was 21%, the “Tub. enzyme inhibition assay K. Activity” value (tubulin [8]; conc 0.1 (unit not given)) was 94.779 and the “Tub. enzyme inhibition assay %inhibition” value (tubulin [8]; conc 1 (unit not given)) was 47.4%. For the same compound, the “Tub. enzyme inhibition assay K. Activity” value (tubulin [8]; conc 1 (unit not given)) was 63.07, the “Tub. enzyme inhibition assay %inhibition” value (tubulin [8]; conc 10 (unit not given)) was 68.5% and the “Tub. enzyme inhibition assay K. Activity” value (tubulin [8]; conc 10 (unit not given)) was 37.815. For the same compound, the “Tub. enzyme inhibition assay %inhibition” value (tubulin [8]; conc 100 (unit not given)) was 87%, the “Tub. enzyme inhibition assay K. Activity” value (tubulin [8]; conc 100 (unit not given)) was 15.546 and the IC50 (tubulin [8]; read-out: Tubulin inhibition IC50 ± SEM, triplicate for each tested concentration) was 3.68 ± 0.14 µM. For the same compound, the “Tub. (IC50) IC50±SD” value (tubulin [8]; supplement raw data, lab codes) was 1.53 ± 0.06 µg/mL.

For `COc1cc(-c2csc(NC(=O)CNc3ccc([N+](=O)[O-])cc3)n2)cc(OC)c1OC` [IV], the IC50 (tubulin [1]) is listed as 2 ± 0.12 µM.
